In publication PMC10038264, “A new family of glutamate-gated chloride channels in parasitic sea louse Caligus rogercresseyi: A subunit refractory to activation by ivermectin is dominant in heteromeric assemblies” (PLOS Pathogens, 2023):
Read-outs that look alike come from different tables or passages of the source.

Experiments:
CrGluCl-A [1] = molecular target: T1, CrGluCl-A (Caligus rogercresseyi, UniProt A0A1W6LZ70); assay: Two-electrode voltage-clamp of Xenopus oocytes expressing CrGluCl-A; assay type: cell-based; details: 100 μM PTX, CrGluCl-A
T1 sequence (A0A1W6LZ70 entry or part of it): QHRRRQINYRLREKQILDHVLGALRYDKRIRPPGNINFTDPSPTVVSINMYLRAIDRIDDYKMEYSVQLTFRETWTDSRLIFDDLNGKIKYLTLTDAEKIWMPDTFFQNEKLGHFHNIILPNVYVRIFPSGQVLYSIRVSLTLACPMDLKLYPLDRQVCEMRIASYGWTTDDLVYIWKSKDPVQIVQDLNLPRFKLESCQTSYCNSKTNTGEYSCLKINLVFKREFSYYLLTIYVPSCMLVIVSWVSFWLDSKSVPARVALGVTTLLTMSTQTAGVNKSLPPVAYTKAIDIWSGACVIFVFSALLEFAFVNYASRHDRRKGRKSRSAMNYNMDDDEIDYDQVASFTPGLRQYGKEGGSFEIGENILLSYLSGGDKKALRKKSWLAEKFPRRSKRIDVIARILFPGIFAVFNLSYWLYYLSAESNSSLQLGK
Protocol: (§1) Adult female Xenopus laevis frogs were anaesthetized by immersion in a1g/L solution tricaine (Ethyl 3-aminobenzoate methanesulfonate, Sigma) buffered to pH 7 with NaHCO3. Surgery was performed 30–40 min later, once the frog was completely anaesthetized judging by loss of reflexes. Ovarian lobes were removed through 1 cm abdominal incision and then kept at 16°C in Barth’s modified solution containing (in mM): 88 NaCl, 1 KCl, 0.4 CaCl2, 0.3 Ca (NO3)2, 0.8 MgSO4, 2.4 NaHCO3, 5 Hepes, 2.5 sodium pyruvate, 100 μg/ml gentamicin sulfate, 100 U/ml penicillin, 100 μg/ml streptomycin, 250 μg/ml amphotericin B, 0.22μm filtered and adjusted to pH 7.5 with Tris-Base. Osmolarity was brought to 220 mOsm with saccharose. The oocytes were manually defolliculated on the same day of extraction and the following day 20 ng cRNA in nuclease-free water was injected into stage V-VI oocytes using a FemtoJet microinjector (Eppendorf). Finally, the injected oocytes were stored in 96 well plates containing Barth’s modified solution and kept at 16°C until experiment day.
Current measurements at controlled membrane potentials (voltage-clamp experiments) were performed using two intracellular microelectrodes in defolliculated Xenopus oocytes previously microinjected with 20 ng of cRNA. Voltage-clamp recording was performed at room temperature using a TURBO TEC-10CX amplifier (npi electronic GmbH, Tamm, Germany) and PClamp 10.6 software (Axon Instruments, USA), 1 to 4 days after oocyte injection. The oocytes were recorded in a chamber (Model RC-1Z, Warner Instrumenst, USA) under continuous superfusion. […] Reference was an Ag-AgCl electrode connected to the bath via a 3 M KCl in 3% agar bridge. Currents were recorded continuously during the experiments without interruptions for solution changes. […] The signal filtered at 1 kHz was acquired with a Digidata 1440A Analog-to-Digital Converter and analyzed with Axon pClamp 10.6 software. […]

CrGluCl-B = assay: Two-electrode voltage-clamp of Xenopus oocytes expressing CrGluCl-B; assay type: cell-based, Caligus rogercresseyi; details: CrGluCl-B
Protocol: as §1
(§2) Current measurements at controlled membrane potentials (voltage-clamp experiments) were performed using two intracellular microelectrodes in defolliculated Xenopus oocytes previously microinjected with 20 ng of cRNA. Voltage-clamp recording was performed at room temperature using a TURBO TEC-10CX amplifier (npi electronic GmbH, Tamm, Germany) and PClamp 10.6 software (Axon Instruments, USA), 1 to 4 days after oocyte injection. The oocytes were recorded in a chamber (Model RC-1Z, Warner Instrumenst, USA) under continuous superfusion. […] Reference was an Ag-AgCl electrode connected to the bath via a 3 M KCl in 3% agar bridge. Currents were recorded continuously during the experiments without interruptions for solution changes. Oocytes were held at -30 mV and a voltage protocol consisting of a voltage drop to -100 mV for 25ms followed by a 360 ms ramp from -100 mV to 60mV applied with a period of 565 ms was continuously given. The signal filtered at 1 kHz was acquired with a Digidata 1440A Analog-to-Digital Converter and analyzed with Axon pClamp 10.6 software. The solution that bathed the oocytes during the electrophysiological recordings had the following composition (mM): 115 NaCl, 2 KCl, 1.8 CaCl2, 1 MgCl2, 10 HEPES pH 7.5 obtained with NaOH. For the low chloride solution, all the NaCl was replaced with the gluconate salt of Na. This decreases chloride concentration from 122.6 to 7.6 mM while increasing that of gluconate from 0 to 115 mM. The stock solutions of the drugs in dimethyl sulfoxide (DMSO) were: 10 mM emamectin, 10 mM ivermectin, 100 mM picrotoxin. These were diluted in bath solution to obtain final concentrations.
(§3) The currents were normalized according to the extrapolated maximum current delivered by the Hill adjustment. In this way, the concentration that generates 50% of the maximum effect (EC50) and the Hill coefficient (nH) for each situation were obtained.

CrGluCl-C = assay type: cell-based, Caligus rogercresseyi
Protocol: as §1, §2, §3

CrGluCl-D = assay type: cell-based, Caligus rogercresseyi; details: CrGluCl-D, read-out: IC50 PTX inhibition of spontaneous current
Protocol: as §1, §2, §3

CrGluCl-A [2] = molecular target: T1, CrGluCl-A; details: cited from earlier work

Row | Substance | inhibition by PTX (CrGluCl-A [1]) | inhibition by PTX of glutamate-elicited current (CrGluCl-B; 100 μM PTX, 1 mM glutamate) | inhibition by PTX (CrGluCl-C; 100 μM PTX, CrGluCl-C) | nH (PTX inhibition) (CrGluCl-C; CrGluCl-C current elicited by 1 μM ivermectin) | IC50 (CrGluCl-C; CrGluCl-C current elicited by 1 μM ivermectin, read-out: IC50 PTX inhibition of ivermectin-induced current) | IC50 (CrGluCl-D; after 1 μM ivermectin (~2 min)) | IC50 (CrGluCl-D; before ivermectin treatment) | IC50 (CrGluCl-A [2]) | antagonism of glutamate response (CrGluCl-B; S3 Fig) | EC50 (CrGluCl-A [2]; read-out: EC50 Ivermectin / avermectin irreversible activation)
1 | picrotoxin [PTX] | 78 ± 2% | 76 ± 9% | 23 ± 10% | -1.2±0.22 | 275 ± 96 µM | 221 ± 100 µM | 16 ± 8.8 µM | 3.2 µM | – | –
2 | emamectin | – | – | – | – | – | – | – | – | antagonistic effect | ~200 nM
